Results on two compounds are retold here after article PMC11062922 (Nature Chemical Biology, 2023).

The target of test [1] is T1, endogenous kinases and other proteins enriched by Kinobeads from mixed lysates of K-562, COLO-205, MV-4-11, SK-N-BE(2) and OVCAR-8 (Homo sapiens, UniProt P06239).
T1 construct: endogenous in cells
The test can be described thus: Kinobeads competition binding profiling, two doses (100 nM and 1 µM).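 Further: inhibitor preincubated 45 min at 4 °C in cell lysate, then bead pulldown. Bound protein quantified by label-free mass spectrometry relative to DMSO vehicle control.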

For test [2], the target named is T2, endogenous kinases and other proteins enriched by Kinobeads from mixed lysates of K-562, COLO-205, MV-4-11, SK-N-BE(2) and OVCAR-8 (Homo sapiens, UniProt P12931).
T2 construct: to maximize the representation of endogenous proteins; endogenous in cells
The test is described as above.

Test [3] addresses T3, endogenous kinases and other proteins enriched by Kinobeads from mixed lysates of K-562, COLO-205, MV-4-11, SK-N-BE(2) and OVCAR-8 (Homo sapiens, UniProt P23458).
T3 construct: to maximize the representation of endogenous proteins; endogenous in cells
Described as above.

A further test concerns the target T4, SYK (Homo sapiens, UniProt P43405).
T4 construct: endogenous in cells
The test can be described thus: Kinobeads two-dose competition binding: SYK.

T3 sequence (P23458 whole entry): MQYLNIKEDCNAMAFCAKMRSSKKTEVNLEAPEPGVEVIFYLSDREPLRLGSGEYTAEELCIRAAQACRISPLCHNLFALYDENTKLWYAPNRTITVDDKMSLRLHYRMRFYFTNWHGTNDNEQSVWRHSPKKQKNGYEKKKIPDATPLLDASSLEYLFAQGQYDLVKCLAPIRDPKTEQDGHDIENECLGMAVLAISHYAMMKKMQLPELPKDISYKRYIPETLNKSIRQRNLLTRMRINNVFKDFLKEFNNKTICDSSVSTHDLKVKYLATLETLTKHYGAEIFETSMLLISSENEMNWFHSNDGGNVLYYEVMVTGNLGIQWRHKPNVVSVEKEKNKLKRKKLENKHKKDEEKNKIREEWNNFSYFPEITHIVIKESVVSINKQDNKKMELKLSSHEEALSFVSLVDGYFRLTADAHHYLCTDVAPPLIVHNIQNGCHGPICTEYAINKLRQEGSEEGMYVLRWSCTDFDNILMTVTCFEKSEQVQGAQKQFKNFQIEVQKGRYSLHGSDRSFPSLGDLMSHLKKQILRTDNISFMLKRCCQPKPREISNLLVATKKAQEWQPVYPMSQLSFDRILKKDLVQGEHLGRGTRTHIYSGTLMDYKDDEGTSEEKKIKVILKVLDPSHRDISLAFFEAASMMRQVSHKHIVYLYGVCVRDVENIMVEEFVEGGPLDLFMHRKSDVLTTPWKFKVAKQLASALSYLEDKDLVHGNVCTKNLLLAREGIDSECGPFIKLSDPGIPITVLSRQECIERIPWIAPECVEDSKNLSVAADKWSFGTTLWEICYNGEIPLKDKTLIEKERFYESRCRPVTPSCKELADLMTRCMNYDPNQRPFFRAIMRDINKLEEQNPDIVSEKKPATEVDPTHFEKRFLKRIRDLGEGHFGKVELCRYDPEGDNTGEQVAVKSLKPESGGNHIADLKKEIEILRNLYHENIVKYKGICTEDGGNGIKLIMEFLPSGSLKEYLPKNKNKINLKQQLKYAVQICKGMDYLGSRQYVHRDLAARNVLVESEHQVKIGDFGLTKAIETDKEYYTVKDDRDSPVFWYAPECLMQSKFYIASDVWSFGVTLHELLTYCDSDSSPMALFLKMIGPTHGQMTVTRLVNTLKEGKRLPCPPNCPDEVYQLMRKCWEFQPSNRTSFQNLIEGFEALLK
T1 sequence (P06239 whole entry): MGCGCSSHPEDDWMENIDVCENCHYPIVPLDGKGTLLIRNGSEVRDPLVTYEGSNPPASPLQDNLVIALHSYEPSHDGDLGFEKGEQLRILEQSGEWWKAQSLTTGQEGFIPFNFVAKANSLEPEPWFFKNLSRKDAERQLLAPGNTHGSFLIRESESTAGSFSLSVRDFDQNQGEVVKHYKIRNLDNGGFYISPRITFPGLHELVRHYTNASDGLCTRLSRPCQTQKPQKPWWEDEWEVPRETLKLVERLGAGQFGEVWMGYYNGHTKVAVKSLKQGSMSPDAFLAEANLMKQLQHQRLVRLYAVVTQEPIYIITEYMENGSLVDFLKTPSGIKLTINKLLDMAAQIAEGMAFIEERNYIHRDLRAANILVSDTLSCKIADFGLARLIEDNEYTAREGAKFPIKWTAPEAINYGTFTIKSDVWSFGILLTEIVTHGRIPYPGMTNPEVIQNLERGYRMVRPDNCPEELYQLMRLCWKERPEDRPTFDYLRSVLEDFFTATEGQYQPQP
T2 sequence (P12931 whole entry): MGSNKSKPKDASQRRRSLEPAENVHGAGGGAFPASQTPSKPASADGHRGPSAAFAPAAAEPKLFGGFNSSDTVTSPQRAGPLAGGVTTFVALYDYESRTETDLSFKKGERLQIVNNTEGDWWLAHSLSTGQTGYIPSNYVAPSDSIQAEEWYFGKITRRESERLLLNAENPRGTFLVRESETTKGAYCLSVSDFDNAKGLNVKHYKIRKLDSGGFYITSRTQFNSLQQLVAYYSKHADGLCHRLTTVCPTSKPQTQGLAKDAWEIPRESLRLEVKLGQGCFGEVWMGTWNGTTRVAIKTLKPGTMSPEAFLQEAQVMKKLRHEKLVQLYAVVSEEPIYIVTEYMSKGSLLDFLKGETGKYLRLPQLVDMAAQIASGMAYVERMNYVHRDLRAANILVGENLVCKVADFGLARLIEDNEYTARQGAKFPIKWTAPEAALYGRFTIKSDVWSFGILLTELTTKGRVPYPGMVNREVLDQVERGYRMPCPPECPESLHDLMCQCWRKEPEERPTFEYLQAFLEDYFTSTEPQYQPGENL

As to `C[C@]12O[C@H](C[C@]1(O)CO)n1c3ccccc3c3c4c(c5c6ccccc6n2c5c31)CNC4=O` [Lestaurtinib], the potency estimated from few doses is 550 nM in test [1] (read-out: Lestaurtinib Drugmatrix value (apparent Kd), Gene Name LCK, target LCK, each column = one Lestaurtinib control run_replicate); 618 nM in test [2] (read-out: Lestaurtinib Drugmatrix value, Gene Name SRC); 881 nM in test [3] (read-out: Lestaurtinib Drugmatrix value (apparent Kd), Gene Name JAK1, target JAK1, each column = one Lestaurtinib control run_replicate); 157 nM on SYK (read-out: Lestaurtinib Drugmatrix value, Gene Name SYK).
Regarding `COc1cc(Nc2ncc3c(C)nc(-c4cc5ccccc5[nH]4)n3n2)cc(OC)c1OC` [GW869516X], the “Kinobeads Data” value (in test [1] (LCK); in test [2] (SRC); in test [3] (JAK1(JH2domain-pseudokinase)); at SYK (SYK)) was “no target” throughout.
